# Assay results from patent US10351575B2, “Bicyclic urea, thiourea, guanidine and cyanoguanidine compounds useful for the treatment of pain” (Array BioPharma Inc., priority 2012, dated 2019).
# Biological target: His-tagged recombinant human TrkA (Homo sapiens (Human), UniProt P04629)
# Assay: TrkA LanthaScreen Eu Kinase Binding Assay
# Conditions: averaged IC50; TR-FRET binding, 60 min, 22° C.; read-out: TrkA Enzyme IC50
# Procedure, shortened: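 TR-FRET binding: 5 nM His-tagged human TrkA cytoplasmic domain with 4 nM Alexa-Fluor Tracer 236, 2 nM biotin anti-His and 2 nM Eu-streptavidin. Buffer was 25 mM MOPS pH 7.5, 5 mM MgCl2, 0.005% Triton X-100, 2% DMSO, 60 min at 22° C. IC50 from a four-parameter fit of ratiometric percent of control.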
# Sequence of His-tagged recombinant human TrkA (P04629 440-796): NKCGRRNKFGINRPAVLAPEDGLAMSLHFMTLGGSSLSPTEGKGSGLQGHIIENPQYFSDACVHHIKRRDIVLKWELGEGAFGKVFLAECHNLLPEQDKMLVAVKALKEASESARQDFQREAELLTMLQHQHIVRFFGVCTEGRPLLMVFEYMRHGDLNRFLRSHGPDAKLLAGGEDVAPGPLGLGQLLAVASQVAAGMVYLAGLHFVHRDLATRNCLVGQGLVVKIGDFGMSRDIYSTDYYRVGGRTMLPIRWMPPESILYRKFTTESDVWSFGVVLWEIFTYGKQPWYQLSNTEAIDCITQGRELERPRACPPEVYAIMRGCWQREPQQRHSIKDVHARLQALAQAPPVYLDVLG
row,SMILES,IC50
1,"Cc1c(OCC2CCN(C)CC2)nn(-c2ccccc2)c1NC(=O)N[C@@H]1c2cc(F)c(F)cc2C(C)(C)C[C@H]1O [Example 81, 1-((1,2-trans)-6,7-difluoro-2-hydroxy-4,4-dimethyl-1,2,3,4-tetrahydronaphthalen-1-yl)-3-(4-methyl-3-((1-methylpiperidin-4-yl)methoxy)-1-phenyl-1H-pyrazol-5-yl)urea]",< 100 nM
2,"COc1nn(-c2ccccc2)c(NC(=O)N[C@@H]2c3cc(F)c(F)cc3C(C)(C)C[C@H]2O)c1C [Example 82, 1-((1,2-trans)-6,7-difluoro-2-hydroxy-4,4-dimethyl-1,2,3,4-tetrahydronaphthalen-1-yl)-3-(3-methoxy-4-methyl-1-phenyl-1H-pyrazol-5-yl)urea]",< 100 nM
3,"Cc1c(-c2ccc(=O)n(C)c2)nn(-c2ccccc2)c1NC(=O)N[C@@H]1c2cc(F)c(F)cc2C(C)(C)C[C@H]1O [Example 83, 1-((1,2-trans)-6,7-difluoro-2-hydroxy-4,4-dimethyl-1,2,3,4-tetrahydronaphthalen-1-yl)-3-(4-methyl-3-(1-methyl-6-oxo-1,6-dihydropyridin-3-yl)-1-phenyl-1H-pyrazol-5-yl)urea]",< 100 nM
4,"Cc1ncc(-c2nn(-c3ccccc3)c(NC(=O)N[C@@H]3c4cc(F)c(F)cc4C(C)(C)C[C@H]3O)c2C)cn1 [Example 84, 1-((1,2-trans)-6,7-difluoro-2-hydroxy-4,4-dimethyl-1,2,3,4-tetrahydronaphthalen-1-yl)-3-(4-methyl-3-(2-methylpyrimidin-5-yl)-1-phenyl-1H-pyrazol-5-yl)urea]",< 100 nM
5,"CNC(=O)c1nn(-c2ccccc2)c(NC(=O)N[C@@H]2c3ccccc3C(C)(C)[C@@H](OC)[C@H]2O)c1C [Example 85, 5-(3-((r-1,t-2,t-3)-2-hydroxy-3-methoxy-4,4-dimethyl-1,2,3,4-tetrahydronaphthalen-1-yl)ureido)-N,4-dimethyl-1-phenyl-1H-pyrazole-3-carboxamide]",< 100 nM
6,"CO[C@H]1[C@@H](O)[C@H](NC(=O)Nc2c(C)c(OCC3CCN(C)CC3)nn2-c2ccccc2)c2ccccc2C1(C)C [Example 87, 1-((r-1,t-2,t-3)-2-hydroxy-3-methoxy-4,4-dimethyl-1,2,3,4-tetrahydronaphthalen-1-yl)-3-(4-methyl-3-((1-methylpiperidin-4-yl)methoxy)-1-phenyl-1H-pyrazol-5-yl)urea]",< 100 nM
7,"CNC(=O)c1nn(-c2ccccc2)c(NC(=O)N[C@@H]2c3ccc(F)cc3C(C)(C)C[C@H]2O)c1C [Example 88, 5-(3-((1,2-trans)-6-fluoro-2-hydroxy-4,4-dimethyl-1,2,3,4-tetrahydronaphthalen-1-yl)ureido)-N,4-dimethyl-1-phenyl-1H-pyrazole-3-carboxamide]",< 100 nM
8,Cc1c(-c2ccc(=O)n(C)c2)nn(-c2ccccc2)c1NC(=O)N[C@@H]1c2ccc(F)cc2C(C)(C)C[C@H]1O [Example 90],< 100 nM
9,"CNC(=O)c1nn(-c2ccccc2)c(NC(=O)N[C@@H]2c3cc(F)ccc3C(C)(C)C[C@H]2O)c1C [Example 91, 5-(3-((1,2-trans)-7-fluoro-2-hydroxy-4,4-dimethyl-1,2,3,4-tetrahydronaphthalen-1-yl)ureido)-N,4-dimethyl-1-phenyl-1H-pyrazole-3-carboxamide]",< 100 nM
10,"Cc1c(-c2ccc(=O)n(C)c2)nn(-c2ccccc2)c1NC(=O)N[C@@H]1c2cc(F)ccc2C(C)(C)C[C@H]1O [Example 93, 1-((1,2-trans)-7-fluoro-2-hydroxy-4,4-dimethyl-1,2,3,4-tetrahydronaphthalen-1-yl)-3-(4-methyl-3-(1-methyl-6-oxo-1,6-dihydropyridin-3-yl)-1-phenyl-1H-pyrazol-5-yl)urea]",< 100 nM
11,Cc1nn(-c2ccccc2)c(NC(=O)N[C@@H]2c3cc(CO)ccc3C(C)(C)C[C@H]2O)c1C [Example 100],< 100 nM
12,"Cc1ncc(-c2nn(-c3ccccc3)c(NC(=O)N[C@@H]3c4ccccc4C(C)(C)C[C@H]3O)c2C)cn1 [Example 117, 1-((1,2-trans)-2-hydroxy-4,4-dimethyl-1,2,3,4-tetrahydronaphthalen-1-yl)-3-(4-methyl-3-(2-methylpyrimidin-5-yl)-1-phenyl-1H-pyrazol-5-yl)urea]",< 100 nM
13,"Cc1ncc(-c2nn(-c3ccccc3)c(NC(=O)NC3CN(CC(F)(F)F)C(=O)c4ccccc43)c2C)cn1 (centres unmarked) [Example 130, 1-(4-methyl-3-(2-methylpyrimidin-5-yl)-1-phenyl-1H-pyrazol-5-yl)-3-(1-oxo-2-(2,2,2-trifluoroethyl)-1,2,3,4-tetrahydroisoquinolin-4-yl)urea]",< 100 nM
14,"Cc1nn(-c2ccccc2)c(NC(=O)NC2CN(CC(F)(F)F)C(=O)c3ccccc32)c1C (centres unmarked) [Example 131, 1-(3,4-dimethyl-1-phenyl-1H-pyrazol-5-yl)-3-(1-oxo-2-(2,2,2-trifluoroethyl)-1,2,3,4-tetrahydroisoquinolin-4-yl)urea]",< 100 nM
15,"Cc1c(OC2CN3CCC2CC3)nn(-c2ccccc2)c1NC(=O)N[C@@H]1c2ccccc2C(C)(C)C[C@H]1O (stereo partly drawn) [Example 132, 1-((1R,2R)-2-hydroxy-4,4-dimethyl-1,2,3,4-tetrahydronaphthalen-1-yl)-3-(4-methyl-1-phenyl-3-(quinuclidin-3-yloxy)-1H-pyrazol-5-yl)urea]",< 100 nM

# More lines, now with the values ahead:
row,IC50,SMILES
1,< 100 nM,"CO[C@H]1[C@@H](O)[C@H](NC(=O)Nc2c(C)c(-c3cnn(C)c3)nn2-c2ccccc2)c2ccccc2C1(C)C [Example 86, 1-(1′,4-dimethyl-1-phenyl-1H,1′H-[3,4′-bipyrazol]-5-yl)-3-((r-1,t-2,t-3)-2-hydroxy-3-methoxy-4,4-dimethyl-1,2,3,4-tetrahydronaphthalen-1-yl)urea]"
2,< 100 nM,"Cc1c(-c2cnn(C)c2)nn(-c2ccccc2)c1NC(=O)N[C@@H]1c2ccc(F)cc2C(C)(C)C[C@H]1O [Example 89, 1-(1′,4-dimethyl-1-phenyl-1H,1′H-[3,4′-bipyrazol]-5-yl)-3-((1,2-trans)-6-fluoro-2-hydroxy-4,4-dimethyl-1,2,3,4-tetrahydronaphthalen-1-yl)urea]"
3,< 100 nM,"Cc1c(-c2cnn(C)c2)nn(-c2ccccc2)c1NC(=O)N[C@@H]1c2cc(F)ccc2C(C)(C)C[C@H]1O [Example 92, 1-(1′,4-dimethyl-1-phenyl-1H,1′H-[3,4′-bipyrazol]-5-yl)-3-((1,2-trans)-7-fluoro-2-hydroxy-4,4-dimethyl-1,2,3,4-tetrahydronaphthalen-1-yl)urea]"
4,< 100 nM,"COCc1ccc2c(c1)C(NC(=O)Nc1c(C)c(=O)[nH]n1-c1ccccc1)CN(CC(F)(F)F)C2C (centres unmarked) [Example 96, 1-(6-(methoxymethyl)-1-methyl-2-(2,2,2-trifluoroethyl)-1,2,3,4-tetrahydroisoquinolin-4-yl)-3-(4-methyl-5-oxo-2-phenyl-2,5-dihydro-1H-pyrazol-3-yl)urea]"
5,< 100 nM,"Cc1c(-c2cnn(C)c2)nn(-c2ccccc2)c1NC(=O)N[C@H]1CCCc2cc(F)ccc21 [Example 103, (S)-1-(1′,4-dimethyl-1-phenyl-1H,1′H-[3,4′-bipyrazol]-5-yl)-3-(6-fluoro-1,2,3,4-tetrahydronaphthalen-1-yl)urea]"
6,< 100 nM,"COCc1ccc2c(c1)C(NC(=O)Nc1c(C)c(-c3cnn(C)c3)nn1-c1ccccc1)CN(CC(F)(F)F)C2C (centres unmarked) [Example 109, 1-(1′,4-dimethyl-1-phenyl-1H,1′H-[3,4′-bipyrazol]-5-yl)-3-(6-(methoxymethyl)-1-methyl-2-(2,2,2-trifluoroethyl)-1,2,3,4-tetrahydroisoquinolin-4-yl)urea]"
7,< 100 nM,"COCc1ccc2c(c1)C(NC(=O)Nc1c(C)c(C(N)=O)nn1-c1ccccc1)CN(CC(F)(F)F)C2C (centres unmarked) [Example 110, 5-(3-(6-(methoxymethyl)-1-methyl-2-(2,2,2-trifluoroethyl)-1,2,3,4-tetrahydroisoquinolin-4-yl)ureido)-4-methyl-1-phenyl-1H-pyrazole-3-carboxamide]"
8,< 100 nM,"COCc1ccc2c(c1)C(NC(=O)Nc1c(C)c(-c3cn(C)cn3)nn1-c1ccccc1)CN(CC(F)(F)F)C2C (centres unmarked) [Example 111, 1-(6-(methoxymethyl)-1-methyl-2-(2,2,2-trifluoroethyl)-1,2,3,4-tetrahydroisoquinolin-4-yl)-3-(4-methyl-3-(1-methyl-1H-imidazol-4-yl)-1-phenyl-1H-pyrazol-5-yl)urea]"
9,< 100 nM,"Cc1c(-c2cnn(C)c2)nn(-c2ccccc2)c1NC(=O)NC1CCSc2ccc(Br)cc21 (centres unmarked) [Example 112, 1-(6-bromothiochroman-4-yl)-3-(1′,4-dimethyl-1-phenyl-1H,1′H-[3,4′-bipyrazol]-5-yl)urea]"
10,100 to 1000 nM,"Cc1c(-c2cnn(C)c2)nn(-c2ccccc2)c1NC(=O)NC1CCS(=O)(=O)c2ccc(Br)cc21 (centres unmarked) [Example 113, 1-(6-bromo-1,1-dioxidothiochroman-4-yl)-3-(1′,4-dimethyl-1-phenyl-1H,1′H-[3,4′-bipyrazol]-5-yl)urea]"
11,< 100 nM,"Cc1c(-c2cnn(C)c2)nn(-c2ccccc2)c1NC(=O)NC1CSCc2ccc(Br)cc21 (centres unmarked) [Example 114, 1-(6-bromoisothiochroman-4-yl)-3-(1′,4-dimethyl-1-phenyl-1H,1′H-[3,4′-bipyrazol]-5-yl)urea]"
12,< 100 nM,"Cc1c(-c2cnn(C)c2)nn(-c2ccccc2)c1NC(=O)NC1CS(=O)(=O)Cc2ccc(Br)cc21 (centres unmarked) [Example 115, 1-(6-bromo-2,2-dioxidoisothiochroman-4-yl)-3-(1′,4-dimethyl-1-phenyl-1H,1′H-[3,4′-bipyrazol]-5-yl)urea]"
13,< 100 nM,"Cc1c(-c2cnn(C)c2)nn(-c2ccccc2)c1NC(=O)NC1CN(CC(F)(F)F)C(=O)c2ccccc21 (centres unmarked) [Example 116, 1-(1′,4-dimethyl-1-phenyl-1H,1′H-[3,4′-bipyrazol]-5-yl)-3-(1-oxo-2-(2,2,2-trifluoroethyl)-1,2,3,4-tetrahydroisoquinolin-4-yl)urea]"
14,< 100 nM,"CNC(=O)c1nn(-c2ccccc2)c(NC(=O)NC2CN(CC(F)(F)F)C(C)c3ccc(COC)cc32)c1C (centres unmarked) [Example 129, 5-(3-(6-(methoxymethyl)-1-methyl-2-(2,2,2-trifluoroethyl)-1,2,3,4-tetrahydroisoquinolin-4-yl)ureido)-N,4-dimethyl-1-phenyl-1H-pyrazole-3-carboxamide]"
